# Reference: US5461045A, “Fused benzeneoxyacetic acid derivatives” (Ono Pharmaceutical Co., Ltd., priority 1992, dated 1995)
# Assays:
# [1] = molecular target: T1, PGI2 receptor (Homo sapiens, UniProt P43119); assay: Inhibitory activity against 3H-iloprost binding onto PGI2 receptor in human platelet membrane fraction; details: inhibition of 10 nM [3H]-iloprost specific binding; human platelet membranes 300 μg; 24° C., 30 min; pH 7.4
# T1 construct: 300 μg of platelet plasma membranes; from tissue; host or cells: human platelets (plasma membranes)
# T1 sequence (P43119 whole entry): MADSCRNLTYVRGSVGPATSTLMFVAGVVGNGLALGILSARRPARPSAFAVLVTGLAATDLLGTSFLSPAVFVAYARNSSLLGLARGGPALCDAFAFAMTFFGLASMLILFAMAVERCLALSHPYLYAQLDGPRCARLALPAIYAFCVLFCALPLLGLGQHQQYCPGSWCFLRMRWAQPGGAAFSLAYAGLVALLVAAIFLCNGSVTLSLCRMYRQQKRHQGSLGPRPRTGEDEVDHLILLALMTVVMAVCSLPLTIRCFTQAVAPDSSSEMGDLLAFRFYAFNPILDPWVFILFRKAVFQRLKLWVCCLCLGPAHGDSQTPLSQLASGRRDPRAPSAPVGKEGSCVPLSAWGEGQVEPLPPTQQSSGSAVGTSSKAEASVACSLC
# Experimental: i) Inhibitory activity against ^3 H-iloprost onto PGI2 receptor in human platelet membrane fraction The binding assay was performed in 200 μl volumes containing 300 μg of platelet plasma membranes. The membranes were added to a buffer composed of 50 mM Tris-HCl (pH 7.4), 15 mM MgCl2, 5 mM EDTA with test compound and 10 nM [^3 H]-iloprost. The membranes were incubated at 24° C. for 30 min. After incubation, 4ml of ice-cold 10 mM Tris-HCl buffer (pH 7.4) was added to the reaction mixture, and filtered through Whatman GF/B glass fiber filter, and washed 4 times with 4 ml of ice-cold 10 mM Tris-HCl buffer (pH 7.4) to separate bound and free [^3 H]-iloprost. After washing, the filter was dried and radioactivity was counted. Non-specific binding was obtained by performing parallel binding experiments in the presence of 10 μM non-labelled iloprost. Specific binding was calculated by subtracting the non-specific binding from the total binding. The inhibitory effect of test compound was calculated from the following equation. The percentage of inhibition (%)=100-(B1 /B0 ×100) B1 : specific [^3 H]-iloprost binding in presence of test compound B0 : specific [^3 H]-iloprost binding in absence of test compound
# [2] = test system: Human platelet aggregation; assay: Inhibitory effect on human platelet aggregation (ADP-induced, platelet-rich plasma); format: cell-based; details: compound added 1 min prior to ADP (4 μM)
# Experimental: | ii) Inhibitory effect on Human platelet aggregation Method of | experiment Platelet-rich plasma was prepared from human blood (5×10^5 platelets/mm^3), and the test compound was added to PRP 1 min prior to the addition of ADP (4 μM). The aggregation was monitored using a platelet aggregometer (NBS HEMA TRACER 601, Niko Bioscience, Japan).
Structure (SMILES),IC50 [1],IC50 [2]
CCCCCC(ON=C(C)CC1CCc2c(cccc2OCC(=O)O)C1)c1ccccc1 (stereo not drawn) [6(r)],2700 nM,
O=C(O)COc1cccc2c1CCC(CC(=NOC(c1ccccc1)c1ccccc1)c1ccccc1)C2 (stereo not drawn) [6(p)],2800 nM,
O=C(O)COc1cccc2c1CCCC2CC=NOC(c1ccccc1)c1ccccc1 (stereo not drawn) [3(a)],5400 nM,
"O=C(O)COc1cccc2c1CCC(CCC=NOC(c1ccccc1)c1ccccc1)C2 (stereo not drawn) [Example 4, [2-(3-Diphenylmethyloxyiminopropyl)-1,2,3,4-tetrahydro-naphthalen-5-yloxy]acetic acid]",2500 nM,
CC(C)C(CC1CCc2c(cccc2OCC(=O)O)C1)=NOC(c1ccccc1)c1ccccc1 (stereo not drawn) [6(o)],2300 nM,
O=C(O)COc1cccc2c1CCC2CC=NOC(c1ccccc1)c1ccccc1 (stereo not drawn) [3(e)],3600 nM,
CC(CC1CCc2c(cccc2OCC(=O)O)C1)=NOC(c1ccccc1)C1CCCCC1 (stereo not drawn) [6(s)],9600 nM,
O=C(O)COc1cccc2c1CCCC(C=NOC(c1ccccc1)c1ccccc1)C2 (stereo not drawn) [Example 9],1900 nM,
COc1ccc(C(ON=C(C)CC2CCc3c(cccc3OCC(=O)O)C2)c2ccc(OC)cc2)cc1 (stereo not drawn) [6(j)],1800 nM,
"CCOC(=O)COc1cccc2c1CCC(CC(C)=NOC(c1ccccc1)c1ccccc1)C2 (stereo not drawn) [Example 5, [2-(2-Diphenylmethyloxyiminopropyl)-1,2,3,4-tetrahydro-naphthalen-5-yloxy]acetic acid ethyl ester]",7000 nM,
CC(CC1CCc2c(cccc2OCC(=O)O)C1)=NOC(c1ccccc1)c1ccccn1 (stereo not drawn) [6(i)],1800 nM,
"O=C(O)COc1cccc2c1CCC(CCNOC(c1ccccc1)c1ccccc1)C2 (stereo not drawn) [Example 8, [2-(2-Diphenylmethyloxyaminoethyl)-1,2,3,4-tetrahydro-naphthalen-5-yloxy]acetic acid]",4000 nM,

# Now those with a lower IC50 [1], led by results:
IC50 [1],IC50 [2],Structure (SMILES)
1300 nM,1100 nM,CC(CC1CCc2c(cccc2OCC(=O)O)C1)=NOC(c1ccccc1)c1cccnc1 (stereo not drawn) [6(h)]
1000 nM,,CC(CC1CCc2c(cccc2OCC(=O)O)C1)=NOC(c1ccccc1)c1ccc([N+](=O)[O-])cc1 (stereo not drawn) [6(f)]
1400 nM,,CC(CC1CCc2c(cccc2OCC(=O)O)C1)=NOCc1ccccc1 (stereo not drawn) [6(l)]
270 nM,120 nM,CCCC(CC1CCc2c(cccc2OCC(=O)O)C1)=NOC(c1ccccc1)c1ccccc1 (stereo not drawn) [6(n)]
890 nM,500 nM,"O=C(O)COc1cccc2c1CCC(CC=NOC(c1ccccc1)c1ccccc1)C2 (stereo not drawn) [Example 3, [2-(2-Diphenylmethyloxyiminoethyl)-1,2,3,4-tetrahydro-naphthalen-5-yloxy]acetic acid]"
280 nM,240 nM,"CC(CC1CCc2c(cccc2OCC(=O)O)C1)=NOC(c1ccccc1)c1ccccc1 (stereo not drawn) [Example 6, [2-(2-Diphenylmethyloxyiminopropyl)-1,2,3,4-tetrahydro-naphthalen-5-yloxy]acetic acid]"
300 nM,,CC(CC1CCc2c(cccc2OCC(=O)O)C1)=NOC(c1ccccc1)c1ccc(Cl)cc1 (stereo not drawn) [6(k)]
270 nM,71 nM,CCC(CC1CCc2c(cccc2OCC(=O)O)C1)=NOC(c1ccccc1)c1ccccc1 (stereo not drawn) [6(m)]
700 nM,,CC(CC1CCc2c(cccc2OCC(=O)O)C1)=NOC(c1ccccc1)c1ccncc1 (stereo not drawn) [6(g)]
480 nM,,CC(CC1CCc2c(cccc2OCC(=O)O)C1)=NOC(c1ccc(F)cc1)c1ccc(F)cc1 (stereo not drawn) [6(e)]
